Patent EP1216701A1, “Process to increase the concentration of meiosis-activating sterols (MAS) in the cholesterol synthesis and the use of potent inhibitors in the process” (Schering Aktiengesellschaft, priority 2000, dated 2002)

How the values were obtained:
HepG2 cells = assay: Accumulation of cholesterol precursors / C29-sterols (MAS) in HepG2 cells, GC/MS (SIM); format: cell-based, Human; conditions: HepG2 cells; for FF-MAS Dimethylst.-trien (482 m/z) / Methylst.-dien (470 m/z) / T-MAS Dimethylst.-dien (484 m/z): bile acids 160 µM, 12-h, n=3, mean ± SD, ratio to internal standard epicoprostanol; for changes in the cholesterol precursor pattern: at 10 µM, compared to potent inhibitors, data not shown; for Dienol (m/z 486) / Enol T-MAS (m/z 484) / Trienol FF-MAS (m/z 482): ± SD; for suppression of the Δ24 reduction step (accumulation of desmosterol): absence of miconazole, 10 µM potent inhibitors or 1 µM tamoxifen for 12 h
Description: Human hepatoma HepG2 cells were cultured to confluency in 60-mm dishes in phenol-red-free Dulbecco's modified Eagle's medium (DMEM) containing Pen-Strep (100 µg/ml), glucose (10 mM), sodium bicarbonate (45 mM) and glutamine (4 mM) supplemented with 10% fetal calf serum as described previously (24). At the beginning of the experiment the medium was changed to serum-free DMEM supplemented with 10% lipid-free "controlled process serum replacement" (CPSR-1). Compounds were added from ethanolic stock solutions to produce final ethanol concentrations of 0.1-0.3% v/v. Controls received the same amount of ethanol. Aminotriazole was added in an aqueous solution. Slices of rat testis (25 µm; 25-50 mg wet weight) were incubated under the same conditions in a shaking water bath (37°C). For isotopomer spectral analysis (ISA) of lathosterol, 1-^13C-acetate was added in an aqueous solution to a final concentration of 1 mM.
(§1) Cells were washed three times with ice cold PBS (pH 7.4) (once with 2 mg/ml BSA and twice with PBS alone). Epicoprostanol (1 µg in 50 µl of hexane) was added as internal standard to each sample. Sterols were extracted in hexane/isopropanol (3:2 v/v; two times with 4 ml). After drying under nitrogen and alkaline hydrolysis (1 N NaOH in 80% ethanol, 1.5 h at 70°C), the sterols were extracted with cyclohexane (two times with 3 ml). After drying under nitrogen, sterols were converted to their trimethylsilyl (TMS) derivatives by adding 100 µl bis(trimethylsilyl)trifluoracetamide (Pierce)/n-decane (1:1; v/v) and heating for 1 h at 70°C in a conical glass tube. This solution (1-2 µl) was used for gas-chromatography/mass-spectrometry (GC/MS). Rat testes (0.05-0.15 g) were homogenized manually, and lipids were extracted in hexane/isopropanol (3:2 v/v; two times with 4 ml). The extracts were deproteinized with acetone (3 ml) and processed as described above. The observed sterol levels in testis were normalized to correspond to 0.1 g of tissue (wet weight).
(§2) Gas-chromatography was done in the splitless mode with temperature programming as follows: 150°C for 1 min, followed by 20°C/min up to 260°C and 10°C/min up to 280°C (hold for 15 min). Mass spectral data were collected either in the full-scan mode (m/z 50-550) or by selective ion monitoring (SIM). For SIM analyses the electron multiplier voltage was raised by 300 V after the elution of lathosterol to increase the sensitivity of detection for lanosterol, dihydrolanosterol, methylsterols, dimethylsterols and plant sterols. The internal standard epicoprostanol was monitored at m/z 370. […] Peak integration was performed manually, and sterols were quantified from SIM analyses against the internal standard. Unless stated otherwise, MAS amounts are given as a percentage of the control.

liver slices = assay: Influence of bile acids on methylsterols and dimethylsterols in liver slices; format: cell-based; conditions: bile acids 160 µM for 9-h, n=2 for UDCA, CDCA, DCA, n=3 for CA and LCA, ratio to campesterol
Description: as §1, §2

Δ24-reductase = molecular target: T1, Δ24-reductase (Homo sapiens, UniProt Q15392); assay: Δ24-reductase assay (conversion of lanosterol to dihydrolanosterol in the presence of miconazole); format: cell-based; conditions: HepG2 cells; conversion of lanosterol to dihydrolanosterol with added miconazole
T1 construct: endogenous in cells; host or cells: HepG2
T1 sequence (Q15392 23-516): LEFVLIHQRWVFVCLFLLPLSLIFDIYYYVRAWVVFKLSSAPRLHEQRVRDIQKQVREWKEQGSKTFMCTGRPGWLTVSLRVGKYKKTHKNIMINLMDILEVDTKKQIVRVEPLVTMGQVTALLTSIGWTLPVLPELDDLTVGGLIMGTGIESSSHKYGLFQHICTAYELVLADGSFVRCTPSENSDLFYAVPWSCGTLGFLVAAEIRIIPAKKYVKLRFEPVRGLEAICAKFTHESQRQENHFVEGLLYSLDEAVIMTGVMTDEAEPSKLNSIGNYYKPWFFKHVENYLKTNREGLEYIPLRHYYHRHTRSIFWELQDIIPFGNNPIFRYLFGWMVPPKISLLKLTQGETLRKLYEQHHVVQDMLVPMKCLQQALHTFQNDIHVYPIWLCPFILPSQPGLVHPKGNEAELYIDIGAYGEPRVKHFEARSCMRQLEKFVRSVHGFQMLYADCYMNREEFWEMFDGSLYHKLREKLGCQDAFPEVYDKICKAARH
Description: HepG2 cells were incubated for 12 h with 10 µM simvastatin (a kind gift from M. Stapff (MSD, Germany)) to deplete cholesterol precursors. Thereafter, the medium was changed to one containing 10 µM simvastatin, 10 µM miconazole (an inhibitor of 14α-demethylation) and 6 µg/dish lanosterol. After 12 h incubation, neutral sterols were extracted as described above, and the samples were monitored for lanosterol (m/z 498 (M^+) and m/z 393 (M-TMSOH-CH3)) and dihydrolanosterol (m/z 500 (M^+) and m/z 395 (M-TMSOH-CH3)) by GC/MS. Dihydrolanosterol was quantified by comparing the ratio of SIM abundances at m/z 395 and 370 (epicoprostanol) against a standard curve constructed from SIM results on mixtures of authentic dihydrolanosterol and epicoprostanol. Desmosterol was quantified analogously by SIM.

[1] = Conc. 10 µM (combinations 10 + 10 µM), 12 h, n=2
[2] = aminotriazole 20000 µM, tamoxifen 1 µM, combination 20000 + 1 µM, incubation time not clearly stated

For `C[C@H](CCC(=O)O)[C@H]1CC[C@H]2[C@@H]3CC[C@@H]4C[C@H](O)CC[C@]4(C)[C@H]3CC[C@]12C` [LCA, Lithocholic acid], the “FF-MAS Dimethylst.-trien (482 m/z)” value (HepG2 cells) was 453 ± 88 % of control, the “Methylst.-dien (470 m/z)” value (HepG2 cells) was 459 ± 29 % of control and the “T-MAS Dimethylst.-dien (484 m/z)” value (HepG2 cells) was 744 ± 155 % of control. The “FF-MAS Dimethylst.-trien (482 m/z)” value (liver slices) was 91 % of control, the “Methylst.-dien (470 m/z)” value (liver slices) was 67 % of control and the “T-MAS Dimethylst.-dien (484 m/z)” value (liver slices) was 172 % of control.
`C[C@]12CC[C@H](O)CC1=CC[C@@H]1[C@@H]2CC[C@]2(C)C(=O)CC[C@@H]12` [dehydroepiandrosterone] was tested, and the “changes in the cholesterol precursor pattern” value (HepG2 cells) was “only minor changes”.
Medroxyprogesterone was tested, and the “Dienol (m/z 486)” value (HepG2 cells; [1]) was 509 ± 50 % of control, the “Enol T-MAS (m/z 484)” value (HepG2 cells; [1]) was 1181 ± 90 % of control and the “Trienol FF-MAS (m/z 482)” value (HepG2 cells; [1]) was 227 ± 11 % of control.
In the case of `CC(=O)[C@@]1(O)CC[C@H]2[C@@H]3CC=C4C[C@@H](O)CC[C@]4(C)[C@H]3CC[C@@]21C` [17α-OH-Pregnenolone, 17α-Hydroxy-pregnenolone], the “order of suppression of Δ24 reduction” value (Δ24-reductase) is reported as “pregnenolone > progesterone > 17α-OH-pregnenolone >> 17α-OH-progesterone”, the “Dienol (m/z 486)” value (HepG2 cells; [1]) is reported as 52 ± 6 % of control and the “Enol T-MAS (m/z 484)” value (HepG2 cells; [1]) is reported as 780 ± 57 % of control. For the same compound, the “Trienol FF-MAS (m/z 482)” value (HepG2 cells; [1]) was 242 ± 19 % of control and the “suppression of the Δ24 reduction step (accumulation of desmosterol)” value (HepG2 cells) was “strongly suppressed”.
With `CC/C(=C(\c1ccccc1)c1ccc(OCCN(C)C)cc1)c1ccccc1` [Tamoxifen] the “suppression of the Δ24 reduction step (accumulation of desmosterol)” value (HepG2 cells) was “strongly suppressed”, the “Dienol (m/z 486)” value (HepG2 cells; [2]) was 34 ± 3 % of control and the “Enol T-MAS (m/z 484)” value (HepG2 cells; [2]) was 617 ± 47 % of control. The “Trienol FF-MAS (m/z 482)” value (HepG2 cells; [2]) was 297 ± 41 % of control.
`C[C@H](CCC(=O)O)[C@H]1CC[C@H]2[C@@H]3[C@@H](O)C[C@@H]4C[C@H](O)CC[C@]4(C)[C@H]3CC[C@]12C` [UDCA, Ursodeoxycholic acid] was tested, and the “FF-MAS Dimethylst.-trien (482 m/z)” value (HepG2 cells) was 309 ± 51 % of control, the “Methylst.-dien (470 m/z)” value (HepG2 cells) was 509 ± 19 % of control and the “T-MAS Dimethylst.-dien (484 m/z)” value (HepG2 cells) was 655 ± 84 % of control. For the same compound, the “FF-MAS Dimethylst.-trien (482 m/z)” value (liver slices) was 204 % of control, the “Methylst.-dien (470 m/z)” value (liver slices) was 235 % of control and the “T-MAS Dimethylst.-dien (484 m/z)” value (liver slices) was 633 % of control.
For `C[C@]12CC[C@H]3[C@@H](CCC4=CC(=O)CC[C@@]43C)[C@@H]1CC[C@@H]2O` [testosterone, Testosterone], the “changes in the cholesterol precursor pattern” value (HepG2 cells) was “only minor changes”.
